Columns and labels:
Akt = Akt phosphorylation by western blotting in HT29 cells; assay type: cell-based, human; conditions: HT29, 10 μM, 0.5 to 24 hours
Protocol: (§1) To address the possibility that sphingadienes might promote cell death by inhibiting the PI3K/AKT pathway, the effect of sphingadienes on phosphorylation of AKT, PTEN, and the AKT substrate 4EBP, which is a regulator of protein translation, was evaluated using immunoblotting of whole cell extracts.
(§2) HT29 cells were incubated with 10 μM C14Δ4:6Sd for 0.5, 1, 3, 6 and 24 hours and the level of Akt and 4EBP phosphorylation was evaluated at each time point by western blotting. […] The ratios of phosphorylated Akt to total Akt and of phosphorylated 4EBP to total 4EBP, were quantified by densitometry using ImageJ software (ImageJ is a public domain Java image processing program inspired by NIH Image; available at rsbweb.nih.gov/ij/index.html) and are shown in FIG. 7A and FIG. 7B, respectively.
(§3) In an additional experiment, HT29 cells were treated for various time periods with 10 μM C14Δ4:6Sd or C18Δ4:8Sd and the level of phosphorylation of Akt and 4EBP was evaluated by western blotting at 0.5, 1.0 and 3.0 hours. The results confirmed that sphingadienes inhibited phosphorylation of Akt and 4EBP, even at 0.5 hours of exposure, thus inhibiting signaling through Akt and 4EBP.

SW480 cells = assay: Autophagy: GFP-LC3 fluorescence microscopy in SW480 cells; assay type: cell-based, human; conditions: SW480 transfected with GFP-LC3, 5 μM, 4 h
Protocol: Autophagy is a cell process used to degrade components of the cytoplasm and functions as a cell survival mechanism during nutrient deprivation (P. Codogno and A J Meijer, Cell Death Differ. 2005 November; 12 Suppl 2:1509-18). […] In order to further investigate this phenomenon, LC3 (microtubule associated protein 1 light chain 3) was used as a marker for this process.
In one experiment, SW480 cells were transfected with a GFP-LC3 construct and treated for 4 h with 5 μM C14Δ4:6Sd. […] In another experiment, SW480 cells transfected with myr-Akt were treated with various concentrations of C14Δ4:6Sd and the amount of LC3 activation (shift from LC3-1 to LC3-2) was verified by western blotting.

HCT116 cells = assay: Viability of HCT116 colon cancer cells; assay type: cell-based; conditions: Homo sapiens, HCT-116; HCT116, 10 μM, 24 hours; read-out: viability, % of controls
Protocol: (§4) The human colon cancer cell lines, HT29, SW480, HCT116 and DLD1 were treated with 10 μM C14Δ4:6Sd (also referred to herein as 2-aminotetradeca-4,6-diene-1,3-diol) and viability was determined at 24 hours.

SK = assay: Competition studies with sphingosine and SD on sphingosine kinase; conditions: not shown, listed as C14 SD
4EBP [1] = assay: 4EBP phosphorylation by western blotting in HT29 cells; assay type: cell-based, human; conditions: HT29, 10 μM, 0.5 to 24 hours
Protocol: as §1, §2, §3

HT29 cells [2] = assay: Uptake and metabolism in HT29 colon cancer cells (LC-MS); assay type: in vitro ADME, human; conditions: for clearance / metabolism in cells after lipid removal: then incubated without lipids for up to 6 hours
Protocol: In this example, the uptake and metabolism of C14 sphingadienes was compared with that of synthetic C17 sphingosine (as a substitute for endogenous C18 sphingosine which is already present in cells) and C14 sphingosine (to assess the importance of the second double bond) by HT29 colon cancer cells. Toward that end, cells were incubated with 10 μM sphingadiene in serum-free media, followed by cell harvest at various time points, lipid extraction and analysis by mass spectrometry of SD, SD-phosphate, C14 sphingosine and corresponding S1Ps.
HT29 cells were incubated for 0.25 hours, 0.5 hours and 1 hour in media containing 10 μM C14-So (Δ4) (sphingosine) or C14Δ4:6Sd (see FIG. 9A). HT29 cells were incubated for 1 hour in media containing 10 μM C14-So or C14Δ4:6Sd. Media was then removed and cells were incubated without lipids for 1, 3 and 6 hours (FIG. 9B). At each time point, cells were harvested, lipids were extracted and the cellular contents of C14-So or C14Δ4:6Sd and the corresponding phosphorylated compounds were analyzed by LC-MS.

HT29 cells [3] = assay: Viability of HT29 colon cancer cells; assay type: cell-based, human
Protocol: as §4
HT29 cells were then incubated with various sphingadiene compounds and viability was determined at 24 hours.
HT29 cells were incubated with various concentrations of C14Δ4:6Sd and viability was determined at 24 hours or incubated with 10 μM C14Δ4:6Sd and viability was determined at various time points.
In a further experiment, HT29 cells were treated with the PI3K inhibitor wortmannin and various concentrations of C14Δ4:6Sd and viability was determined at 24 hours by MTT assay. The results confirmed synergistic inhibition of […] by C14Δ4:6Sd and wortmannin (see FIG. 8C).

4EBP [4] = assay: Phosphorylated 4EBP in polyps of ApcMin/+ mice by western blotting; assay type: in vivo; conditions: gavage 2.5 mg/day, day 10
Protocol: Murine experiments were performed to investigate the in vivo effect of C14Δ4:6Sd on the development of polyps in intestinal tissue using an established animal model system having an inherited genetic defect underlying spontaneous multiple intestinal neoplasia (Min) (Polakis, 1997 Biochim Biophys. Acta. 1332:F127; Kucherlapati et al., 2001 Semin. Canc. Biol. 11:219; Sansom et al., 2004 Genes Dev. 18:1385). Ten 12 week-old male ApcMin/+ mice (available from Jackson Laboratory, Bar Harbor, Me.) were administered by gavage 2.5 mg/day C14Δ4:6Sd and ten mice received vehicle control. Mice were euthanized by CO2 asphyxiation and intestinal tissues harvested at day 10. Gross polyps were counted and measured (diameter). […] Polyps were further analyzed for phosphorylated 4EBP by western blotting and it was confirmed that sphingadienes inhibited 4EBP phosphorylation in vivo.

CCCCCCC/C=C/C=C/C(O)C(N)CO (stereo not shown) [C14Δ4:6Sd, 2-aminotetradeca-4,6-diene-1,3-diol]
phosphorylation of Akt (Akt): inhibited
autophagosome formation (GFP-LC3) (SW480 cells): autophagosome formation
viability at 10 µM (HCT116 cells): > 50%
inhibition of SK (SK): inhibit SK
phosphorylation of 4EBP (4EBP [1]): inhibited
conversion to the phosphorylated compound in intact cells (HT29 cells [2]; HT29, 10 μM, LC-MS, listed as C14 SDs): not converted to SD-phosphates
uptake rate compared with long chain sphingosine (HT29 cells [2]; HT29, 10 μM, not shown): faster
uptake rate by cells (HT29 cells [2]; HT29, 10 μM, serum-free media): taken up at equal rates
clearance / metabolism in cells after lipid removal (HT29 cells [2]; HT29, 10 μM): remains unaltered
clearance / metabolism in cells after lipid removal (HT29 cells [2]; HT29, 10 μM, listed as C14 SDs): remained in the cells for many hours
time remaining in cells after lipid removal (HT29 cells [2]; HT29, FIG. 3): 6 h
dose and time dependence of cytotoxicity (HT29 cells [3]; HT29, various concentrations at 24 hours or 10 μM at various time points): dose- and time-dependent
cytotoxicity (viability) (HT29 cells [3]; HT29, various concentrations, 24 hours): cytotoxic
viability in combination with PI3K inhibitor wortmannin (HT29 cells [3]; HT29, various concentrations, 24 hours, MTT assay): synergistic
viability at 10 µM (HT29 cells [3]; Homo sapiens, HT-29, HT29, 10 μM, 24 hours, read-out: viability, % of controls): < 50%
4EBP phosphorylation in polyps in vivo (4EBP [4]): inhibited

From US8741967B2, “Use of unsaturated sphingosine compounds as chemotherapeutic agents for the treatment of cancer” (Children's Hospital & Research Center at Oakland, priority 2007, dated 2014)
